Results reported in US5830994A, “Peptide derivatives of alpha-MSH and their application” (Institut Europeen De Biologie Cellulaire, priority 1993, dated 1998).

Experiments:
[1] = system: Interleukin-1α; experiment: Inhibition of the synthesis of Interleukin 1 (IL1α) induced by LPS in mice, serum ELISA; assay type: in vivo, BALB/C mice
Procedure: Study of the immunosuppressive activity of the derivative compound 4 on the inhibition of the synthesis of Interleukin 1 "IL1" in mice.
The secretion of IL1 is induced by the parenteral administration of lipopolysaccharides "LPS" to BALB/C mice.
Compound 4 (P-IV) is dissolved in physiological saline. It is assayed quantitatively by spectrophotometry at 280 nm (assay of Tryptophan) which allows an accurate assay of "P-IV" in the solutions which are stored at -25° C.
Extracts of Escherichia Coli serotype 0127 - B8 -"Ref. SIGMA - L3137" are used at the concentration of 6 mg/ml in physiological saline.
BALB/C mice--females--5 weeks old, obtained from IFFA - CREDO subjected to a photoperiod of 12 hours of light per 24 hours water and feed ad libitum
the other based on a single treatment, consequently much more rapid, will serve for the control of the PIV activity ("DAYNES" technique).
The animals in the control batches receive an injection of 0.2 ml of physiological saline subcutaneously, the animals in the PIV batches receive an injection of the product at various dosages subcutaneously. This treatment takes place for 5 days.
Forty-eight hours after the treatment with PIV, a sublethal dose of LPS (1.2 mg in 0.2 ml of physiological saline) is injected intraperitoneally into each animal in the PIV batches and in the positive control batch.
One hundred and eighty minutes later, all the mice were punctured through the retroorbital sinuses on dry tubes. As soon as the blood coagulates, the clot is detached. The blood is centrifuged for 10 minutes at 1800 g at a temperature of 10° C.
40 μg of PIV in 0.2 ml of physiological saline--that is to say 200 μg/ml
25 Ag of PIV in 0.2 ml of physiological saline--that is to say 125 μg/ml
10 μg of PIV in 0.2 ml of physiological saline--that is to say 50 μg/ml
The animals in the control batches receive an injection of 0.2 ml of physiological saline intravenously.
The animals in the PIV batches receive an injection of the product at various dosages intravenously. (Caudal vein)
Immediately afterwards, a sublethal dose of LPS (1.2 mg years [sic] 0.2 ml of physiological saline) is injected intraperitoneally into each animal in the PIV batches and into the positive control batches.
One hundred and eighty minutes later, all the mice are punctured through the retroorbital sinuses on dry tubes. As soon as the blood coagulates, the clot is detached. The blood is centrifuged for 10 minutes at 1800 g at a temperature of 10° C. The sera once collected are frozen at -25° C.
The Interleukin-1α contained in these sera is assayed 24 hours after the sampling with the murine IL1α ELISA assay Kit (ref. 1900 GENZYME)
Rapid description of the Kit: the method used for this assay is of the sandwich type.
A first anti-murine IL1α monoclonal antibody is used
The samples are then deposited, then a second biotinylated anti-IL1α antibody is caused to react.
The coloured reaction uses tetramethylbenzidine (TMB)
The reading is made at 450 nm on a MULTISKAN MCC 340 MKII (TITERTEK) plate reader.

[2] = system: cultured embryonic cells; experiment: Effects of Peptides PI and PIV on cultured embryonic cells in vitro (melanocytes, neurons, muscular cells, fibroblasts); assay type: cell-based
Procedure: Effects of Peptides PI and PIV on cultured embryonic cells in vitro . . . "Melanocytes - Neurons - Muscular Cells and Fibroblasts . . . " dose used 1 μg/ml (defined by dose/response trials)
1 single treatment during the innoculation of the cells or several successive treatments (renewal of the medium every 48 hours) duration of culture: 6 to 8 days
1) Counting of the melanocytes
2) Assay of melanin by HPLC and/or by spectrophotometry
Daily observation of the cultures
Ultrastructure by transmission electron microscopy.

**Q.** Which “mean decreases in IL1α” value ([1]; 50 μg/ml, five studies) does the source give for “[(DL) Lip] His - D.homoPhe - Arg - Trp - NH2 [PIV]” here?
**A.** 50%

**Q.** What about the “mean decreases in IL1α” value ([1]; 125 μg/ml, five studies) of the same substance?
**A.** 50%

**Q.** What about the “mean decreases in IL1α” value ([1]; 200 μg/ml, five studies) of the same substance?
**A.** 60%

**Q.** What about the “mean decreases in IL1α” value ([1]; all dosages, all the five studies) of the same substance?
**A.** ~55%

**Q.** What about the “decrease in the synthesis of Interleukin-1α relative to the control” value ([1]; with the two methodologies used (SHEEHAN and DAYNES)) of the same substance?
**A.** at least 50%

**Q.** And the “effect on precursor embryonic cells not yet determined in the melanoblastic pathway (in words)” value ([2]; 1 μg/ml)?
**A.** no effect

**Q.** What about the “effect on the melanoblasts already induced (in words)” value ([2]; 1 μg/ml) of the same substance?
**A.** stimulating effect

**Q.** What about the “number of melanocytes increases by a factor” value ([2]; 1 μg/ml) of the same substance?
**A.** ≥ 2

**Q.** What about the “toxic effect on astroglial cells (in words)” value ([2]; 1 μg/ml) of the same substance?
**A.** No toxic effect

**Q.** And the “toxic effect on fibroblasts, mesenchyme (in words)” value ([2]; 1 μg/ml)?
**A.** no toxic effect

**Q.** And the “quantity of biosynthesized melanin per cell” value ([2]; 1 μg/ml, after eight days of culture)?
**A.** 1.4 ng/cell

**Q.** What about the “toxic effect on myoblasts (in words)” value ([2]; 1 μg/ml, even at an ultrastructural level) of the same substance?
**A.** no toxic effect

**Q.** And the “effect on melanogenesis, summary (in words)” value ([2]; qualitative and quantitative)?
**A.** stimulate melanogenesis

**Q.** And the “cytotoxic effect on the various cell categories (in words)” value ([2]; summary)?
**A.** no cytotoxic effect

**Q.** What about the “stimulating effect on the other cell types: neurons, astrocytes, muscle cells, fibroblasts (in words)” value ([2]; summary) of the same substance?
**A.** without stimulating effect
